biological target: T1, TGFβ R1 (Homo sapiens, UniProt P36897); experiment: TGFβ R1 autophosphorylation protocol (33P-ATP, phosphocellulose filter plate); type: biochemical; conditions: 10 uM ATP, 170 nM TGFβ R1, 20 minutes at room temperature, read-out: IC50 for Kinase Inhibition
T1 sequence (P36897 34-503): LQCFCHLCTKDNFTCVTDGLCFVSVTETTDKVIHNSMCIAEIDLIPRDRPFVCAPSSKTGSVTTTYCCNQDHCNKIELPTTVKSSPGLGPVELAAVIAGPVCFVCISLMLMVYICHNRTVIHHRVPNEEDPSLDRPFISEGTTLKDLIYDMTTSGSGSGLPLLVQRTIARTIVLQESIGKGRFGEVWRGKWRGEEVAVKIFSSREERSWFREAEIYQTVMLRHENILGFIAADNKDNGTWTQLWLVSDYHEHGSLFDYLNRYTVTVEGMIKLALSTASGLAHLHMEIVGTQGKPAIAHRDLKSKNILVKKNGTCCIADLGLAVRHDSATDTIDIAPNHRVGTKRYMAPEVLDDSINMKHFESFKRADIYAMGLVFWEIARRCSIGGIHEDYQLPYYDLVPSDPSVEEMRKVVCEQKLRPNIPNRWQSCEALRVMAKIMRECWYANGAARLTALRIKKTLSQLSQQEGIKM
In short: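 Incorporation of 33P from γ-33P-ATP (10 uM ATP final) into the kinase itself (170 nM) measured by phosphocellulose capture and scintillation counting. Incubation 20 min at room temperature in 20 mM MOPS pH 7 with […]; final DMSO ≤1%.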

Structure (SMILES) | IC50 [nM]
O=C(NCCO)c1cnccc1Nc1nc(-c2cc(Cl)ccc2F)ncc1N1CCCC1 [Compound 24, 4-[2-(5-Chloro-2-fluoro-phenyl)-5-pyrrolidin-1-yl-pyrimidin-4-ylamino]-N-(2-hydroxy-ethyl)-nicotinamide] | 490
COc1cnc(-c2cc(Cl)ccc2F)nc1Nc1ccncc1C(=O)NCCCNCCC1O[C@H](COCc2ccccc2)[C@@H](OCc2ccccc2)[C@H](OCc2ccccc2)[C@H]1OCc1ccccc1 (stereo partly shown) [Compound 99, 4-[2-(5-Chloro-2-fluoro-phenyl)-5-methoxy-pyrimidin-4-ylamino]-N-{3-[2-(3,4,5-tris-benzyloxy-6-benzyloxymethyl-tetrahydro-pyran-2-yl)-ethylamino]-propyl}-nicotinamide] | 610
COc1cnc(-c2cc(Cl)ccc2F)nc1Nc1ccncc1C(=O)NCCNCCOC1O[C@H](CO)[C@H](O)[C@H](O)[C@H]1O (stereo partly shown) [Compound 158] | 5
COc1cnc(-c2cc(Cl)ccc2F)nc1Nc1ccncc1C(=O)NCCCN1CCCC1 [Compound 29] | 30
COC(=O)[C@H]1C[C@@H](NC(=O)c2cnccc2Nc2nc(-c3cc(Cl)ccc3F)ncc2OC)CN1C(=O)OC(C)(C)C [Compound 88, 4-({4-[2-(5-Chloro-2-fluoro-phenyl)-5-methoxy-pyrimidin-4-ylamino]-pyridine-3-carbonyl}-amino)-pyrrolidine-1,2-dicarboxylic acid 1-tert-butyl ester 2-methyl ester] | 14100
COc1cnc(-c2cc(Cl)ccc2F)nc1Nc1ccncc1C(=O)NCCNCCC1O[C@H](CO)[C@@H](O)[C@H](O)[C@@H]1O (stereo partly shown) [Compound 151] | 4
COc1cnc(-c2cc(Cl)ccc2F)nc1Nc1ccncc1C(=O)NC1CN(C(=O)OC(C)(C)C)C1 [Compound 86, 3-({4-[2-(5-Chloro-2-fluoro-phenyl)-5-methoxy-pyrimidin-4-ylamino]-pyridine-3-carbonyl}-amino)-azetidine-1-carboxylic acid tert-butyl ester] | 310
CC(C)c1cnc(-c2cc(Cl)ccc2F)nc1Nc1ccncc1C(=O)NCCCN1CC[C@@H](O)C1 [Compound 113, 4-[2-(5-Chloro-2-fluoro-phenyl)-5-isopropyl-pyrimidin-4-ylamino]-N-[3-(3-hydroxy-pyrrolidin-1-yl)-propyl]-nicotinamide] | 40
COc1cnc(-c2cc(Cl)ccc2F)nc1Nc1ccncc1C(=O)NCCCN(C(=O)CC1O[C@H](CO)[C@@H](O)[C@H](O)[C@H]1O)C(C)C (stereo partly shown) [Compound 149, 4-[2-(5-Chloro-2-fluoro-phenyl)-5-methoxy-pyrimidin-4-ylamino]-N-(3-[isopropyl-[2-(3,4,5-trihydroxy-6-hydroxymethyl-tetrahydro-pyran-2-yl)-acetyl]-amino]-propyl)-nicotinamide] | 47
COc1cnc(-c2cc(Cl)ccc2F)nc1Nc1ccncc1C(=O)NCCCN1CCC[C@H]1C(N)=O [Compound 123, N-[3-(2-Carbamoyl-pyrrolidin-1-yl)-propyl]-4-[2-(5-chloro-2-fluoro-phenyl)-5-methoxy-pyrimidin-4-ylamino]-nicotinamide] | 23
O=C(NC1CC1)c1cnccc1Nc1nc(-c2cc(Cl)ccc2F)ncc1Cl [Compound 92, 4-[5-Chloro-2-(5-chloro-2-fluoro-phenyl)-pyrimidin-4-ylamino]-N-cyclopropyl-nicotinamide] | 130
COc1cnc(-c2cc(Cl)ccc2F)nc1Nc1ccncc1C(=O)NC[C@H](O)[C@@H](O)CN [Compound 55, N-(4-Amino-2,3-dihydroxy-butyl)-4-[2-(5-chloro-2-fluoro-phenyl)-5-methoxy-pyrimidin-4-ylamino]-nicotinamide] | 130
COc1cnc(-c2cc(Cl)ccc2F)nc1Nc1cc[n+]([O-])cc1C(=O)NC1CC1 [Compound 114, 4-[2-(5-Chloro-2-fluoro-phenyl)-5-methoxy-pyrimidin-4-ylamino]-N-cyclopropyl-1-oxy-nicotinamide] | 3080
COc1cnc(-c2cc(Cl)ccc2F)nc1Nc1ccncc1C(=O)NCCCNCCC1O[C@H](CO)[C@@H](O)[C@H](O)[C@H]1O (stereo partly shown) [Compound 127, 4-[2-(5-Chloro-2-fluoro-phenyl)-5-methoxy-pyrimidin-4-ylamino]-N-{3-[2-(3,4,5-trihydroxy-6-hydroxymethyl-tetrahydro-pyran-2-yl)-ethylamino]-propyl}-nicotinamide] | 63
COc1cnc(-c2cc(Cl)ccc2F)nc1Nc1ccncc1C(=O)NCCCNCCNC(C)C [Compound 14] | 120
CCOC(=O)CNC(=O)c1cnccc1Nc1nc(-c2cc(Cl)ccc2F)ncc1OC [Compound 1, ({4-[2-(5-Chloro-2-fluoro-phenyl)-5-methoxy-pyrimidin-4-ylamino]pyridine-3-carbonyl}-amino)-acetic acid ethyl ester] | 40
COc1cnc(-c2cc(Cl)ccc2F)nc1Nc1ccncc1C(=O)NC1CCN(C(=O)CC2O[C@H](CO)[C@@H](O)[C@H](O)[C@H]2O)CC1 (stereo partly shown) [Compound 148, 4-[2-(5-Chloro-2-fluoro-phenyl)-5-methoxy-pyrimidin-4-ylamino]-N-{1-[2-(3,4,5-trihydroxy-6-hydroxymethyl-tetrahydro-pyran-2-yl)-acetyl]-piperidin-4-yl}-nicotinamide] | 207

same assay, conditions: 10 uM ATP, 170 nM TGFβ R1, room temperature 20 minutes, read-out: IC50 for Kinase Inhibition

Structure (SMILES) | IC50 [nM]
COCCCNC(=O)c1cnccc1Nc1nc(-c2cc(Cl)ccc2F)ncc1C(C)C [Compound 186, 4-[2-(5-Chloro-2-fluoro-phenyl)-5-isopropyl-pyrimidin-4-ylamino]-N-(3-methoxy-propyl)-nicotinamide] | 11
CC(C)c1cnc(-c2cc(Cl)ccc2F)nc1Nc1ccncc1C(=O)NC[C@H](C)OP(=O)(O)O [Compound 234, Phosphoric acid mono-[2-{[4-[2-(5-chloro-2-fluoro-phenyl}-5-isopropyl-pyrimidin-4-ylamino]-pyridine-3-carbony}-amino)-1-methyl-ethyl] ester] | 178
CC(C)c1cnc(-c2cc(Cl)ccc2F)nc1Nc1ccncc1C(=O)NCCCN1CCC[C@@H]1C(=O)N(C)C [Compound 181, 4-[2-(5-Chloro-2-fluoro-phenyl)-5-isopropyl-pyrimidin-4-ylamino]-N-[3-(2-dimethylcarbamoyl-pyrrolidin-1-yl)-propyl]-nicotinamide] | 6
CC(C)c1cnc(-c2cc(Cl)ccc2F)nc1Nc1ccncc1C(=O)N[C@@H]1CCC[C@H]1OCc1ccccc1 (stereo in doubt) [Compound 222, N-(2-Benzyloxy-cyclopentyl)-4-[2-(5-chloro-2-fluoro-phenyl)-5-isopropyl-pyrimidin-4-ylamino]-nicotinamide] | 7700
O=C(NCCCn1ccnc1)c1cnccc1Nc1nc(-c2cc(Cl)ccc2F)ncc1C1CCCC1 [Compound 219] | 44
COc1cnc(-c2cc(Cl)ccc2F)nc1Nc1ccncc1C(=O)N1CCC[C@H](O)C1 [Compound 221, {4-[2-(5-Chloro-2-fluoro-phenyl)-5-methoxy-pyrimidin-4-ylamino]-pyridin-3-yl}-(3-hydroxy-piperidin-1-yl)-methanone] | 1460
CC(C)c1cnc(-c2cc(Cl)ccc2F)nc1Nc1ccncc1C(=O)N[C@@H]1CCC[C@H]1O [Compound 236, 4-[2-(5-Chloro-2-fluoro-phenyl)-5-isopropyl-pyrimidin-4-ylamino]-N-(2-hydroxy-cyclopentyl)-nicotinamide] | 123
COCC(COC)NC(=O)c1cnccc1Nc1nc(-c2cc(Cl)ccc2F)ncc1C(C)C [Compound 195, 4-[2-(5-Chloro-2-fluoro-phenyl)-5-isopropyl-pyrimidin-4-ylamino]-N-(2-methoxy-1-methoxymethyl-ethyl)-nicotinamide] | 424
COc1cnc(-c2cc(Cl)ccc2F)nc1Nc1ccncc1C(=O)NCCCNS(C)(=O)=O [Compound 237, 4-[2-(5-Chloro-2-fluoro-phenyl)-5-methoxy-pyrimidin-4-ylamino]-N-(3-methanesulfonylamino-propyl)-nicotinamide] | 63
CC(C)c1cnc(-c2cc(Cl)ccc2F)nc1Nc1ccncc1C(=O)NC(CO)CO [Compound 193, 4-[2-(5-Chloro-2-fluoro-phenyl)-5-isopropyl-pyrimidin-4-ylamino]-N-(2-hydroxy-1-hydroxymethyl-ethyl)-nicotinamide] | 27
CC(C)c1cnc(-c2cc(Cl)ccc2F)nc1Nc1ccncc1C(=O)NCCCO [Compound 188, 4-[2-(5-Chloro-2-fluoro-phenyl)-5-isopropyl-pyrimidin-4-ylamino]-N-(3-hydroxy-propyl)-nicotinamide] | 5
COc1cnc(-c2cc(Cl)ccc2F)nc1Nc1ccncc1C(=O)NO [Compound 238, 4-[2-(5-Chloro-2-fluoro-phenyl)-5-methoxy-pyrimidine-4-ylamino]-N-hydroxy-nicotinamide] | 1080
CCOP(=O)(OCC)OC(C)(C)CNC(=O)c1cnccc1Nc1nc(-c2cc(Cl)ccc2F)ncc1C(C)C [Compound 192] | 122
COc1cnc(-c2cc(Cl)ccc2F)nc1Nc1ccncc1C(=O)NCCNCC[C@H]1C[C@H](O)[C@@H](CO)O1 [Compound 173, 4-[2-(5-Chloro-2-fluoro-phenyl)-5-methoxy-pyrimidin-4-ylamino]-N-{2-[2-(4-hydroxy-5-hydroxymethyl-tetrahydro-furan-2-yl)-ethylamino]-ethyl}-nicotinamide] | 6
